According to patent US12552775B2, “Compounds and uses thereof” (Foghorn Therapeutics Inc., priority 2020, dated 2026):

Key:
[1] = biological target: T1, HiBit-BRM fusion protein (Homo sapiens, UniProt P51531); experiment: HiBiT-BRM cell-based degradation assay (Nano-Glo HiBiT Lytic Detection, 24 h); conditions: stable HeLa cell line expressing HiBiT-BRM, top dose 30 μM
T1 construct: expressed in transfected cells
Method: (§1) Procedure: A stable HeLa cell line expressing HiBiT-BRM was generated. On day 0, 5000 cells were seeded in 40 μL of media into each well of 384-well cell culture plates. On day 1, cells were treated with 120 nL DMSO or 120 nL of 3-fold serially DMSO-diluted compounds (10 points in duplicate with 30 μM as final top dose). Subsequently plates were incubated for 24 h in a standard tissue culture incubator and equilibrated at room temperature for 15 minutes. Nano-Glo HiBiT Lytic Detection System (Promega N3050) reagent was freshly prepared and 20 ul was added to each well. Upon addition of this LgBit-containing reagent, the HiBiT and LgBiT proteins associate to form the luminescent NanoBiT luciferase. The plates were shaken for 10 minutes at room temperature and the bioluminescence read using an EnVision plate reader (PerkinElmer).
(§2) The degradation % was calculated using the following formula: % degradation=100%−100%×(Lumsample−LumLC)/(LumHC−LumLC). DMSO treated cells are employed as High Control (HC) and 2 μM of a known BRM/BRG1 degrader standard treated cells are employed as Low Control (LC).

[2] = biological target: T2, HiBit-BRG1 fusion protein (Homo sapiens, UniProt P51532); experiment: HiBiT-BRG1 cell-based degradation assay (Nano-Glo HiBiT Lytic Detection, 24 h); conditions: stable HeLa cell line expressing HiBit-BRG1 and LgBit, top dose 30 μM, read-out: BRG1 HiBit Degradation Maximum (%)
T2 construct: expressed in transfected cells
T2 sequence (P51532 whole entry, the tested form may be a part): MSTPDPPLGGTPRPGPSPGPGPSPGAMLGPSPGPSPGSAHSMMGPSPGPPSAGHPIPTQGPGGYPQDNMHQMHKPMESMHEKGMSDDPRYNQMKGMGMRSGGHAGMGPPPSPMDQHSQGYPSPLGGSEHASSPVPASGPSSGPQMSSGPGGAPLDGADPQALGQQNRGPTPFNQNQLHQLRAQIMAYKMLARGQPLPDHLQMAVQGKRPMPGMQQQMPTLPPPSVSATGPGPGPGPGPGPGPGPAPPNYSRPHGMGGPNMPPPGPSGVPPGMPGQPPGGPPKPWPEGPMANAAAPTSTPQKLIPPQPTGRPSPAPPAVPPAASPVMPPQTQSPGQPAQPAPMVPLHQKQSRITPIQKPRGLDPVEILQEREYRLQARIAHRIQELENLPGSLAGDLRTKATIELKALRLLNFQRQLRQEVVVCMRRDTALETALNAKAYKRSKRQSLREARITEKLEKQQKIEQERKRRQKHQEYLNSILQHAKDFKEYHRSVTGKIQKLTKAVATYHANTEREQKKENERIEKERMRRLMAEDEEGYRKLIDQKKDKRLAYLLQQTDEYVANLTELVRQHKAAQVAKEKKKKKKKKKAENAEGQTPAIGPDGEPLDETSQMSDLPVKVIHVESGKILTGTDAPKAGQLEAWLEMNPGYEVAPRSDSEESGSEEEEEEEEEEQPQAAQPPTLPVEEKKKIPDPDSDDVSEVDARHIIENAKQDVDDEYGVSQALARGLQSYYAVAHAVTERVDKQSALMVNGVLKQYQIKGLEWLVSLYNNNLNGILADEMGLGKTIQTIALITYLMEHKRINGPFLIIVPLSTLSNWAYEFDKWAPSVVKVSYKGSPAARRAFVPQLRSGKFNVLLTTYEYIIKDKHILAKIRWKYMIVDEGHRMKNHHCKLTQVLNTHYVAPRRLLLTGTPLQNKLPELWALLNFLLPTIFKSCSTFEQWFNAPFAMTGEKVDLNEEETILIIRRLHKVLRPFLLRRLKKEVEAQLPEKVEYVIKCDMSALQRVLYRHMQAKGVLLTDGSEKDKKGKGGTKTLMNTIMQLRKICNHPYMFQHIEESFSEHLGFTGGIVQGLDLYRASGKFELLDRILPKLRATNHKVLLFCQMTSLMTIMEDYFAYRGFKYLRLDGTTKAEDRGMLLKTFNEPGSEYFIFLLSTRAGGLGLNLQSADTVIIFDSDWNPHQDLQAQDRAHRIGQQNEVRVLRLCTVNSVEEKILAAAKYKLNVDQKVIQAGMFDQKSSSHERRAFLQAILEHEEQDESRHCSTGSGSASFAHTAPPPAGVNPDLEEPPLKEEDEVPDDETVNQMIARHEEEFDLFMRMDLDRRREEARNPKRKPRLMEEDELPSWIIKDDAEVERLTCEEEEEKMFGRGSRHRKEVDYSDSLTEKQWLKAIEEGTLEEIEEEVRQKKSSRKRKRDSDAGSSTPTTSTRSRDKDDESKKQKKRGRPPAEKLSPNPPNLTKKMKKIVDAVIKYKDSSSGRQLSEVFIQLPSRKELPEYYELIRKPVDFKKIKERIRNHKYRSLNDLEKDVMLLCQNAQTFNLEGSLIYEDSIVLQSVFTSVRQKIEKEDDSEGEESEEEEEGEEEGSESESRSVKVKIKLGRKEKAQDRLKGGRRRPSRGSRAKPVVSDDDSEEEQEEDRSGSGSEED
Method: as §1
For measurement of BRG1 degradation, a stable HeLa cell line expressing HiBit-BRG1 and LgBit was generated. The same protocol as above was then followed.
as §2

T1 sequence (P51531 whole entry, the tested form may be a part): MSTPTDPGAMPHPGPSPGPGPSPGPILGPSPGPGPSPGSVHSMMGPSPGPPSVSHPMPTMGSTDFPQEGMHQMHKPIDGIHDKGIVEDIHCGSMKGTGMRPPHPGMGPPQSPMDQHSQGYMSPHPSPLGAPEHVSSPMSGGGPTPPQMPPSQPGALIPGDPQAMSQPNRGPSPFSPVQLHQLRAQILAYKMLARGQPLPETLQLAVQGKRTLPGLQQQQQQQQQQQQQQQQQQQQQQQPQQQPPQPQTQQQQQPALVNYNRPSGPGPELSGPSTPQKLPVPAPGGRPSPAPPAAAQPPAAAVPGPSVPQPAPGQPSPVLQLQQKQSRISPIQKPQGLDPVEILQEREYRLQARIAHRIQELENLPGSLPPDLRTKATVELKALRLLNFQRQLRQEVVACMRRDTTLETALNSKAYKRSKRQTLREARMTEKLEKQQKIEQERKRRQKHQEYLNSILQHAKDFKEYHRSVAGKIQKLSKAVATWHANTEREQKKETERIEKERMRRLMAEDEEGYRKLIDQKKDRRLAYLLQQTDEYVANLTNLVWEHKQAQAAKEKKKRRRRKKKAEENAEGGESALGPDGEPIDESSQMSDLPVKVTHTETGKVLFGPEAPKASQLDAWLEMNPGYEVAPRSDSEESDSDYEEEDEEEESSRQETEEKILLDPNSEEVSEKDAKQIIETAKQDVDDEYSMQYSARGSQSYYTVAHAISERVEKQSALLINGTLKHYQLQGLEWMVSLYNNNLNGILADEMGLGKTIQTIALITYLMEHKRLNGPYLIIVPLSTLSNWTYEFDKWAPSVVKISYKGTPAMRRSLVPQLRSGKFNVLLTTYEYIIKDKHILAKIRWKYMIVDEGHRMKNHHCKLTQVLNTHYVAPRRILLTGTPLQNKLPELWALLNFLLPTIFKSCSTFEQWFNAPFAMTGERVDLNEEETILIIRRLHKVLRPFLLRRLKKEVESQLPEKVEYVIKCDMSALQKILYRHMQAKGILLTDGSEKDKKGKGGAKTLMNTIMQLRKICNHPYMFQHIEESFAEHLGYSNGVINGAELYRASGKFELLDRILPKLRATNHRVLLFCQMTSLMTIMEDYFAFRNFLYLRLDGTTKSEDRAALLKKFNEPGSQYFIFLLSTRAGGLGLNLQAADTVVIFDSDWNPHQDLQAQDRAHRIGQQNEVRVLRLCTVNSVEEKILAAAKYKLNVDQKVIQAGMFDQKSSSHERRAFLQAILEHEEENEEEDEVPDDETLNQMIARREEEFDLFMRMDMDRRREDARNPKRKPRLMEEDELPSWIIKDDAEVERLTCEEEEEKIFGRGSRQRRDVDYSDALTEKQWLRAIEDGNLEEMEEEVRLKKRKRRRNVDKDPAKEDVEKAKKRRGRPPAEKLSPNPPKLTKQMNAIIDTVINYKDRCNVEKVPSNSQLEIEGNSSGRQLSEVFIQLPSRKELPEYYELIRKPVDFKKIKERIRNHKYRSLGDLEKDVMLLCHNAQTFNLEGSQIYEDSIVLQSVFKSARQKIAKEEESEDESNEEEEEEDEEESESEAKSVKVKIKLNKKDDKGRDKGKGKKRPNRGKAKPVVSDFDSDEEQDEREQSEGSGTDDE

In the case of `Cc1ncsc1-c1ccc(CNC(=O)[C@@H]2C[C@@H](O)CN2C(=O)[C@@H](NC(=O)CCCCCCCCCCCCCCC(=O)NC23CC(CCOc4cc(-c5ccccc5O)nnc4N)(C2)C3)C(C)(C)C)cc1` [Compound 50, N1-(3-(2-((3-amino-6-(2-hydroxyphenyl)pyridazin-4-yl)oxy)ethyl)bicyclo[1.1.1]pentan-1-yl)-N16-((S)-1-((2S,4R)-4-hydroxy-2-((4-(4-methylthiazol-5-yl)benzyl)carbamoyl)pyrrolidin-1-yl)-3,3-dimethyl-1-oxobutan-2-yl)hexadecanediamide; formic acid], the “BRM HiBit Degradation Maximum (%)” value [1] is reported as “B (“B” indicates maximum degradation ≥ 50%)” and the Dmax [2] is reported as < 50%.
`Nc1nnc(-c2ccccc2O)cc1OCCC12CC(NC(=O)CCOCCOCCOc3ccc4c(c3)C(=O)N(C3CCC(=O)NC3=O)C4=O)(C1)C2` (centres unmarked) [Compound 31, N-(3-(2-((3-amino-6-(2-hydroxyphenyl)pyridazin-4-yl)oxy)ethyl)bicyclo[1.1.1]pentan-1-yl)-3-(2-(2-((2-(2,6-dioxopiperidin-3-yl)-1,3-dioxoisoindolin-5-yl)oxy)ethoxy)ethoxy)propanamide] was tested, and the “BRM HiBit Degradation Maximum (%)” value [1] was “C (“C” indicates maximum degradation < 50%)” and the Dmax [2] was < 50%.
`Nc1nnc(-c2ccccc2O)cc1OCC12CC(C(=O)N3CCN(CCCC#Cc4ccc5c(c4)C(=O)N(C4CCC(=O)NC4=O)C5=O)CC3)(C1)C2` (centres unmarked) [Compound 51, 5-(5-(4-(3-(((3-amino-6-(2-hydroxyphenyl)pyridazin-4-yl)oxy)methyl)bicyclo[1.1.1]pentane-1-carbonyl)piperazin-1-yl)pent-1-yn-1-yl)-2-(2,6-dioxopiperidin-3-yl)isoindoline-1,3-dione] was tested, and the “BRM HiBit Degradation Maximum (%)” value [1] was “C (“C” indicates maximum degradation < 50%)” and the Dmax [2] was < 50%.
In the case of `Nc1nnc(-c2ccccc2O)cc1OCC12CC(C(=O)NCCOc3cccc(OCCNc4ccc5c(c4)C(=O)N(C4CCC(=O)NC4=O)C5=O)c3)(C1)C2` (centres unmarked) [Compound 82, 3-(((3-amino-6-(2-hydroxyphenyl)pyridazin-4-yl)oxy)methyl)-N-(2-(3-(2-((2-(2,6-dioxopiperidin-3-yl)-1,3-dioxoisoindolin-5-yl)amino)ethoxy)phenoxy)ethyl)bicyclo[1.1.1]pentane-1-carboxamide], the “BRM HiBit Degradation Maximum (%)” value [1] is reported as “C (“C” indicates maximum degradation < 50%)” and the Dmax [2] is reported as < 50%.
`Cc1ncsc1-c1ccc(CNC(=O)[C@@H]2C[C@@H](O)CN2C(=O)[C@@H](NC(=O)COCCOCCOCCNC(=O)C23CC(COc4cc(-c5ccccc5O)nnc4N)(C2)C3)C(C)(C)C)cc1` [Compound 69, (2S,4R)-1-((S)-1-(3-(((3-amino-6-(2-hydroxyphenyl)pyridazin-4-yl)oxy)methyl)bicyclo[1.1.1]pentan-1-yl)-15-(tert-butyl)-1,13-dioxo-5,8,11-trioxa-2,14-diazahexadecan-16-oyl)-4-hydroxy-N-(4-(4-methylthiazol-5-yl)benzyl)pyrrolidine-2-carboxamide] was tested, and the “BRM HiBit Degradation Maximum (%)” value [1] was “C (“C” indicates maximum degradation < 50%)” and the Dmax [2] was < 50%.
For `Nc1nnc(-c2ccccc2O)cc1OCC12CC(C(=O)N3CCN(CCCOc4ccc5c(c4)C(=O)N(C4CCC(=O)NC4=O)C5=O)CC3)(C1)C2` (centres unmarked) [Compound 97, 5-(3-(4-(3-(((3-amino-6-(2-hydroxyphenyl)pyridazin-4-yl)oxy)methyl)bicyclo[1.1.1]pentane-1-carbonyl)piperazin-1-yl)propoxy)-2-(2,6-dioxopiperidin-3-yl)isoindoline-1,3-dione; formic acid], the “BRM HiBit Degradation Maximum (%)” value [1] was “C (“C” indicates maximum degradation < 50%)” and the Dmax [2] was < 50%.
For `CN(CCNC(=O)C12CC(COc3cc(-c4ccccc4O)nnc3N)(C1)C2)CCOCCOc1cccc2c1C(=O)N(C1CCC(=O)NC1=O)C2=O` (centres unmarked) [Compound 79, 3-(((3-amino-6-(2-hydroxyphenyl)pyridazin-4-yl)oxy)methyl)-N-(2-((2-(2-((2-(2,6-dioxopiperidin-3-yl)-1,3-dioxoisoindolin-4-yl)oxy)ethoxy)ethyl)(methyl)amino)ethyl)bicyclo[1.1.1]pentane-1-carboxamide], the “BRM HiBit Degradation Maximum (%)” value [1] was “C (“C” indicates maximum degradation < 50%)” and the Dmax [2] was < 50%.
In the case of `Nc1nnc(-c2ccccc2O)cc1OCC12CC(C(=O)NCCCC#Cc3cccc4c3C(=O)N(C3CCC(=O)NC3=O)C4=O)(C1)C2` (centres unmarked) [Compound 88, 3-(((3-amino-6-(2-hydroxyphenyl)pyridazin-4-yl)oxy)methyl)-N-(5-(2-(2,6-dioxopiperidin-3-yl)-1,3-dioxoisoindolin-4-yl)pent-4-yn-1-yl)bicyclo[1.1.1]pentane-1-carboxamide], the “BRM HiBit Degradation Maximum (%)” value [1] is reported as “C (“C” indicates maximum degradation < 50%)” and the Dmax [2] is reported as < 50%.
With `Cc1nc2cccc(NCCCCCCCCNC(=O)C34CC(COc5cc(-c6ccccc6O)nnc5N)(C3)C4)c2c(=O)n1C1CCC(=O)NC1=O` (centres unmarked) [Compound 59, 3-(((3-amino-6-(2-hydroxyphenyl)pyridazin-4-yl)oxy)methyl)-N-(8-((3-(2,6-dioxopiperidin-3-yl)-2-methyl-4-oxo-3,4-dihydroquinazolin-5-yl)amino)octyl)bicyclo[1.1.1]pentane-1-carboxamide] the “BRM HiBit Degradation Maximum (%)” value [1] was “C (“C” indicates maximum degradation < 50%)” and the Dmax [2] was < 50%.
`Nc1nnc(-c2ccccc2O)cc1OCC12CC(C(=O)NCCCCCCCCNc3cccc4c3CN(C3CCC(=O)NC3=O)C4=O)(C1)C2` (centres unmarked) [Compound 58, 3-(((3-amino-6-(2-hydroxyphenyl)pyridazin-4-yl)oxy)methyl)-N-(8-((2-(2,6-dioxopiperidin-3-yl)-1-oxoisoindolin-4-yl)amino)octyl)bicyclo[1.1.1]pentane-1-carboxamide] was tested, and the “BRM HiBit Degradation Maximum (%)” value [1] was “C (“C” indicates maximum degradation < 50%)” and the Dmax [2] was < 50%.
With `Nc1nnc(-c2ccccc2O)cc1OCC12CC(C(=O)NCCCCCCNc3ccc4c(c3)C(=O)N(C3CCC(=O)NC3=O)C4=O)(C1)C2` (centres unmarked) [Compound 64, 3-(((3-amino-6-(2-hydroxyphenyl)pyridazin-4-yl)oxy)methyl)-N-(6-((2-(2,6-dioxopiperidin-3-yl)-1,3-dioxoisoindolin-5-yl)amino)hexyl)bicyclo[1.1.1]pentane-1-carboxamide] the “BRM HiBit Degradation Maximum (%)” value [1] was “C (“C” indicates maximum degradation < 50%)” and the Dmax [2] was < 50%.
`Nc1nnc(-c2ccccc2O)cc1OCC12CC(C(=O)N3CC(Oc4ccc5c(c4)C(=O)N(C4CCC(=O)NC4=O)C5=O)C3)(C1)C2` (centres unmarked) [Compound 96, 5-((1-(3-(((3-amino-6-(2-hydroxyphenyl)pyridazin-4-yl)oxy)methyl)bicyclo[1.1.1]pentane-1-carbonyl)azetidin-3-yl)oxy)-2-(2,6-dioxopiperidin-3-yl)isoindoline-1,3-dione] was tested, and the “BRM HiBit Degradation Maximum (%)” value [1] was “C (“C” indicates maximum degradation < 50%)” and the Dmax [2] was < 50%.
`Cc1ncsc1-c1ccc(CNC(=O)[C@@H]2C[C@@H](O)CN2C(=O)[C@@H](NC(=O)CCC(=O)NC23CC(CCOc4cc(-c5ccccc5O)nnc4N)(C2)C3)C(C)(C)C)cc1` [Compound 42, N1-(3-(2-((3-amino-6-(2-hydroxyphenyl)pyridazin-4-yl)oxy)ethyl)bicyclo[1.1.1]pentan-1-yl)-N4-((S)-1-((2S,4R)-4-hydroxy-2-((4-(4-methylthiazol-5-yl)benzyl)carbamoyl)pyrrolidin-1-yl)-3,3-dimethyl-1-oxobutan-2-yl)succinamide] was tested, and the “BRM HiBit Degradation Maximum (%)” value [1] was “C (“C” indicates maximum degradation < 50%)” and the Dmax [2] was < 50%.
For `Nc1nnc(-c2ccccc2O)cc1OCC12CC(C(=O)NCCS(=O)(=O)CCNc3cccc4c3C(=O)N(C3CCC(=O)NC3=O)C4=O)(C1)C2` (centres unmarked) [Compound 74, 3-(((3-amino-6-(2-hydroxyphenyl)pyridazin-4-yl)oxy)methyl)-N-(2-((2-((2-(2,6-dioxopiperidin-3-yl)-1,3-dioxoisoindolin-4-yl)amino)ethyl)sulfonyl)ethyl)bicyclo[1.1.1]pentane-1-carboxamide], the “BRM HiBit Degradation Maximum (%)” value [1] was “C (“C” indicates maximum degradation < 50%)” and the Dmax [2] was < 50%.
With `Nc1nnc(-c2ccccc2O)cc1OCC12CC(C(=O)NC3CCN(CCOc4ccc5c(c4)C(=O)N(C4CCC(=O)NC4=O)C5=O)CC3)(C1)C2` (centres unmarked) [Compound 80, 3-(((3-amino-6-(2-hydroxyphenyl)pyridazin-4-yl)oxy)methyl)-N-(1-(2-((2-(2,6-dioxopiperidin-3-yl)-1,3-dioxoisoindolin-5-yl)oxy)ethyl)piperidin-4-yl)bicyclo[1.1.1]pentane-1-carboxamide] the “BRM HiBit Degradation Maximum (%)” value [1] was “C (“C” indicates maximum degradation < 50%)” and the Dmax [2] was < 50%.
`Cc1ncsc1-c1ccc(CNC(=O)[C@@H]2C[C@@H](O)CN2C(=O)[C@@H](NC(=O)CCCCCCCCCC(=O)NCC23CC(COc4cc(-c5ccccc5O)nnc4N)(C2)C3)C(C)(C)C)cc1` [Compound 39, N1-((3-(((3-amino-6-(2-hydroxyphenyl)pyridazin-4-yl)oxy)methyl)bicyclo[1.1.1]pentan-1-yl)methyl)-N11-((S)-1-((2S,4R)-4-hydroxy-2-((4-(4-methylthiazol-5-yl)benzyl)carbamoyl)pyrrolidin-1-yl)-3,3-dimethyl-1-oxobutan-2-yl)undecanediamide] was tested, and the “BRM HiBit Degradation Maximum (%)” value [1] was “B (“B” indicates maximum degradation ≥ 50%)” and the Dmax [2] was < 50%.
